Measurements reported in paper PMC6007354 (2016).

What was measured:
[1] = test system: tRNA (AUAUAUAUAU) (RNA, other) AUAUAUAUAU; experiment: fluorescence turn-on (443 nm); details: 10 mM HEPES pH 7.4; probe 10 uM; quantum yield 0.21; no constant
[2] = test system: tRNA (GCGCGCGCGC) (RNA, other) GCGCGCGCGC; experiment: fluorescence turn-on (443 nm); details: 10 mM HEPES pH 7.4; probe 10 uM; quantum yield 0.22; no constant
[3] = test system: tRNA (GCGCGCGCGC) (RNA, other) GCGCGCGCGC; experiment: 1H NMR titration; details: 0.01 M HEPES pH 7.4 in D2O; shifts of probe and base protons
[4] = test system: tRNA (AUAUAUAUAU) (RNA, other) AUAUAUAUAU; experiment: 1H NMR titration; details: 0.01 M HEPES pH 7.4 in D2O; shifts of probe and base protons

Measured: binding

C[n+]1ccn(Cc2ccc3ccccc3c2)c1
yes: all assays above
